Source: article PMC4728427, “Mechanism of allosteric activation of TMEM16A/ANO1 channels by a commonly used chloride channel blocker” (British Journal of Pharmacology, 2016)
Read-outs that look alike come from different tables or passages of the source.

Molecular target: T1, Mouse TMEM16A (Mus musculus, UniProt Q8BHY3)
T1 construct: expressed in transfected cells; host or cells: HEK-293T
T1 sequence (Q8BHY3 1-960): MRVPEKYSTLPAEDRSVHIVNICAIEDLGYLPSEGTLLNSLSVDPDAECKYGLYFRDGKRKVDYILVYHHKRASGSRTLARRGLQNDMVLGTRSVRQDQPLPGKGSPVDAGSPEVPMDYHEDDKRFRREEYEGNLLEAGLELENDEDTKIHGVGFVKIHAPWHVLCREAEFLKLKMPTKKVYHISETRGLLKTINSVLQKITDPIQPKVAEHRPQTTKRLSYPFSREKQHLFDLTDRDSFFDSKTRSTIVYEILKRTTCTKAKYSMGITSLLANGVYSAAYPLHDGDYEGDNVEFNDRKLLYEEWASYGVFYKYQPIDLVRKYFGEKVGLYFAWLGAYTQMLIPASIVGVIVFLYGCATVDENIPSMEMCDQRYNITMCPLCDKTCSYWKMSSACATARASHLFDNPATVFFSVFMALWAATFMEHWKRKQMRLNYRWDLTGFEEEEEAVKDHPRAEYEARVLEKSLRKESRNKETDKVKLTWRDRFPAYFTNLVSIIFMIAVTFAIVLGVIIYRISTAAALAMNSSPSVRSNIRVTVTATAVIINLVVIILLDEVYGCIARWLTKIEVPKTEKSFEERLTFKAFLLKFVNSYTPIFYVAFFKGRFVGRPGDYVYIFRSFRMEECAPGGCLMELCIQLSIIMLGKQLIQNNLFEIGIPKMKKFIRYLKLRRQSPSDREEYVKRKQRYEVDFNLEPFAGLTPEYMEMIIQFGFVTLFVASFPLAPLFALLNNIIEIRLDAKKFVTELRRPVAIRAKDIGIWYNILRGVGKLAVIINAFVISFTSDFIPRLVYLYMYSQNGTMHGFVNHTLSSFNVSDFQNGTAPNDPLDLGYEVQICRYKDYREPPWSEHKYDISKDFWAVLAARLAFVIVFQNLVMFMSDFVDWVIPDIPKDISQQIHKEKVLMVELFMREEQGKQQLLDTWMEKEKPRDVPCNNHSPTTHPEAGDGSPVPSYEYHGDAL
Test: Whole-cell [A9C]ext-inhibition relationship (Hill and Woodhull fits), 12.5 μM [Ca2+]i
Format: cell-based
Description: Mouse TMEM16A (GenBank NM_178642) subcloned into pcDNA3.1 vector was used in this study (Alexander et al., 2013). HEK‐293T cells were cultured as previously described (Smith et al., 2013) and transfected with 0.5–1 μg of TMEM16A and 0.1 μg of CD8 constructs using Fugene HD (Promega, Madison, WI, USA) according to the manufacturer's instructions. Cells were used ~12–36 h after transfection. Transfected cells were visualized using the anti‐CD8 antibody‐coated beads method (Jurman et al., 1994).
The intracellular solution contained (mM) 130 CsCl, 10 EGTA, 1 MgCl2, 10 HEPES and 8 CaCl2 to obtain ~300 nM of [Ca^2+]i; pH was adjusted to 7.3 with NaOH. The intracellular solutions containing ~600 nM, ~1000 nM and ~12.5 μM [Ca^2+]i were obtained by replacing EGTA with equimolar H‐EDTA and by adding 2.1, 3.1 and 7.8 mM CaCl2 respectively. The extracellular solution contained (mM) 150 NaCl, 1 CaCl2, 1 MgCl2, 10 glucose, 10 D‐mannitol and 10 HEPES; pH was adjusted to 7.4 with NaOH. […] A9C was dissolved in DMSO (stock concentration, 300 mM); thus, the final concentration of DMSO was ≤1%. Aliquots of the stock solution were kept at −20° and used within 5 days.
The relationship between [A9C] and TMEM16A current inhibition was obtained by measuring the currents at the end of 250 ms V m steps from +20 to +120 mV in 20 mV increments elicited every 2 s from a holding V m of −70 mV. TMEM16A currents measured in the presence of A9C (I b) were normalized to currents measured in the absence of A9C (I 0) and plotted against [A9C]. The concentration–response curves obtained were fit with the Hill equation of the form: (1) Ib/Io=1/1+A9C/Ki^γ,
where K i is the apparent A9C dissociation constant from the inhibitory site and γ is the coefficient of cooperativity (Hill coefficient).
The relationships between the K i or K d and V m were fitted with the Woodhull equation (Woodhull, 1973): (3) Kx=Kx0exp−δxzFVm/RT.
The subscript ‘x’ stands for either ‘i’ or ‘d’. Thus, K i(0) or K d(0) are the apparent A9C dissociation constants from the inhibitory or activating site at 0 mV, z is the A9C electric valence (−1), δ i or δ d is the fraction of the V m sensed by A9C when bound to the inhibitory or activating site, F is Faraday's constant, R is the universal gas constant and T is the absolute temperature.
To investigate the precise mechanism by which extracellular A9C inhibits TMEM16A channels, macroscopic whole‐cell currents were recorded in the presence of 12.5 μM [Ca^2+]i and in response to 250 ms steps to various V m test pulse from a holding V m of −70 mV. The negative holding V m was used to prevent channel block before the test pulse was elicited. […] The time‐course of this decrease was described by a single‐exponential function characterized by a time constant τ B. The extent of the decrease in current was measured for various [A9C]ext and various V m test pulse and then plotted relative to the current measured in the absence of A9C (I 0) (Figure 3B). The γ values were close to 1 at each V m. In contrast, K i decreased as the V m was increased (Figure 3C). […] Thus, A9C appeared to block TMEM16A channels according to a Woodhull mechanism, consistent with a single A9C molecule blocking the channel pore.

O=C(O)c1c2ccccc2cc2ccccc12 [A9C, Anthracene‐9‐carboxylic acid]
Ki (12.5 μM [Ca2+]i (rounded in Discussion), read-out: K i(0)): ~300 µM
δ i (fraction of Vm sensed at inhibitory site, Woodhull fit) (12.5 μM [Ca2+]i, extracellular A9C): 0.62 ± 0.03
Ki (12.5 μM [Ca2+]i, extracellular A9C, read-out: K i(0) (apparent dissociation constant from inhibitory site at 0 mV)): 322 ± 13 µM
Ki (+80 mV, mouse TMEM16A (rounded in Discussion), read-out: K i): ~50 µM
γ (slope factor, inhibition) (V m 20, 12.5 μM [Ca2+]i): 0.86 ± 0.14 (n = 8)
Ki (V m 20, 12.5 μM [Ca2+]i, [A9C]ext, unit inferred, read-out: K i (Hill fit of inhibition)): 198 ± 47 µM
γ (slope factor, inhibition) (V m 40, 12.5 μM [Ca2+]i): 0.85 ± 0.15 (n = 8)
Ki (V m 40, 12.5 μM [Ca2+]i, [A9C]ext, unit inferred, read-out: K i (Hill fit of inhibition)): 113 ± 26 µM
γ (slope factor, inhibition) (V m 60, 12.5 μM [Ca2+]i): 0.8 ± 0.2 (n = 8)
Ki (V m 60, 12.5 μM [Ca2+]i, [A9C]ext, unit inferred, read-out: K i (Hill fit of inhibition)): 68 ± 20 µM
γ (slope factor, inhibition) (V m 80, 12.5 μM [Ca2+]i): 0.8 ± 0.17 (n = 8)
Ki (V m 80, 12.5 μM [Ca2+]i, [A9C]ext, unit inferred, read-out: K i (Hill fit of inhibition)): 44 ± 10 µM
γ (slope factor, inhibition) (V m 100, 12.5 μM [Ca2+]i): 0.8 ± 0.23 (n = 8)
Ki (V m 100, 12.5 μM [Ca2+]i, [A9C]ext, unit inferred, read-out: K i (Hill fit of inhibition)): 31 ± 12 µM
γ (slope factor, inhibition) (V m 120, 12.5 μM [Ca2+]i): 0.71 ± 0.16 (n = 8)
Ki (V m 120, 12.5 μM [Ca2+]i, [A9C]ext, unit inferred, read-out: K i (Hill fit of inhibition)): 20 ± 8 µM
electric distance of inhibiting binding site (δ i) (Woodhull analysis, rounded): ~ 0.6
penetration into the pore length (voltage field) to reach inhibitory site (from δ i): approximately 60%
γ from Hill fit of [A9C]ext-inhibition relationships (rounded in Discussion): ≈ 1
